Reference: ChEMBL document CHEMBL4725403, “Improved design of peptides exhibiting angiogenic activities for clinical applications” (Bioorg Med Chem, 2020)
Active and inactive are the calls of the source. No cut-off for these calls is given here. Where a SMILES comes first, the peptide text is derived from it. Bridges are numbered along the chain shown (N, C = ends). [ ]: non-standard residue; d: D form. AEEA = NCCOCCOCC(=O)O

Key:
[1] = Stability of compound in HUVEC cell lysates assessed as parent compound remaining after 6 hrs by HPLC-MS; type: ADME, subcellular; details: human; for Stabilty: huvec, 6 h
HUVEC [2] = assay: Induction of angiogenesis in HUVEC assessed as tube formation at 2 ug/ml after 2 hrs by inverted microscopy; type: functional; details: Homo sapiens, dose 2.0 µg/ml
HUVEC [3] = assay: Induction of angiogenesis in HUVEC assessed as tube formation at 2 ug/ml after 18 hrs by inverted microscopy; type: functional; details: Homo sapiens, dose 2.0 µg/ml
[4] = Stability of compound in human serum assessed as parent compound remaining after 6 hrs by HPLC-MS; type: ADME, cell-free; details: for Stabilty: 6 h
HUVEC [5] = assay: Induction of angiogenesis in HUVEC assessed as tube formation at 2 ug/ml upto 24 hrs by inverted microscopy; type: functional; details: Homo sapiens, dose 2.0 µg/ml

Molecule	Stabilty [1]	Activity (HUVEC [2])	Activity (HUVEC [3])	Stabilty [4]	Activity (HUVEC [5])	remaining at 6 h ([1]; HUVEC cell lysates, read-out: Stabilty)	remaining at 6 h ([4]; read-out: Stabilty)
CC(C)C[C@H](NC(=O)CNC(=O)[C@H](Cc1ccccc1)NC(=O)[C@@H](NC(=O)[C@@H](NC(=O)[C@H](CO)NC(=O)COCCOCCN)C(C)C)C(C)C)C(=O)N[C@@H](CCCNC(=N)N)C(N)=O (H-[AEEA]SVVFGLR-NH2)	Stable	–	–	–	–	–	–
CC(C)C[C@@H]1NC(=O)CNC(=O)[C@H](Cc2ccccc2)NC(=O)[C@H](C(C)C)NC(=O)[C@H](C(C)C)NC(=O)[C@H](CO)NC(=O)COCCOCCNC(=O)[C@@H](N)CSSC[C@@H](C(N)=O)NC(=O)CNC(=O)[C@H](CCCNC(=N)N)NC1=O	Stable	Active	Active	Stable	Active	–	–
H-SVVFGLR-NH2	–	Active	Active	Unstable	–	50%	–
CC(C)C[C@@H]1NC(=O)CNC(=O)[C@H](Cc2ccccc2)NC(=O)[C@H](C(C)C)NC(=O)[C@H](C(C)C)NC(=O)[C@H](CO)NC(=O)COCCOCCNC(=O)CC[C@@H](C(N)=O)NC(=O)[C@H](CCCNC(=N)N)NC1=O ([AEEA]SVVFGLRE-NH2; lactam N-9)	Unstable	Active	Active	–	–	–	80%
CC(C)C[C@@H]1NC(=O)CNC(=O)[C@H](Cc2ccccc2)NC(=O)[C@H](C(C)C)NC(=O)[C@H](C(C)C)NC(=O)[C@H](CO)NC(=O)COCCOCCNC(=O)[C@H](N)CSSC[C@H](C(N)=O)NC(=O)CNC(=O)[C@H](CCCNC(=N)N)NC1=O	Stable	Active	Active	Stable	–	–	–
